In US5747661A, “Retinoid-inducible response elements” (Howard Hughes Medical Institute):
Entries after “also recorded” stand apart in the source; their conditions may differ.

Key:
GAL4-LXR = biological target: T1, GAL4-LXR (Homo sapiens, UniProt Q13133); assay: GAL4-receptor chimera ligand activation, GAL4-LXR with TK-MH100x4-LUC in CV1 cells; format: cell-based; conditions: 10^-5 M 9cRA, 10^-5 M TTNPB, 10^-4 M methoprene acid, FIG. 3c
T1 construct: hLXRα 166-447; expressed in transfected cells; host or cells: CV-1
T1 sequence (Q13133 166-447): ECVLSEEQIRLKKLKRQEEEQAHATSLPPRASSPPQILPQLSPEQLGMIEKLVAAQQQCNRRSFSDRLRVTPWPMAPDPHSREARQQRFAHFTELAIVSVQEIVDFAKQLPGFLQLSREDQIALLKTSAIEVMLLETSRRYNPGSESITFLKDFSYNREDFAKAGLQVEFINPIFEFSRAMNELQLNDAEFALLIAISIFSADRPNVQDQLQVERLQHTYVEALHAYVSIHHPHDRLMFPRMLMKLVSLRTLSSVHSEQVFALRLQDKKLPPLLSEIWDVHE
Experimental: (§1) FIG. 3C illustrates the ligand specificity of the GAL4-receptor chimeras. […] In both 3B and 3C, CV1 cells were cotransfected as described previously with CMX vectors driving expression of the indicated hybrid proteins and the reporter plasmid TK-MH100x4-LUC, which contains four copies of the GAL4 DNA upstream activation sequence. In FIG. 3C, ligands were added as described with reference to FIG. 2. Luciferase activity is expressed as RLUs (relative light units) corrected for transfection efficiency using an internal […] standard and represents the mean of triplicate assays (±SEM).
Construction of wild-type receptor inserted into the expression vectors RSV and CMX, have been detailed elsewhere (Gigueere et al., in Cell46:645-652 (1986); Umesono et al., in Cell65:1255-1266 (1991); Mangelsdorf et al., (1990) supra). The hLXRα cDNA insert was excised from the plasmid pXR2ΔRV with Kpn1 and BamHI and ligated into the expression vectors RSV and CMX. Chimeric Gal4-receptor expression plasmids (e.g. CMX-GAL4-LXRα) were constructed by first ligating the GAL4 portion of pSG424 (Sadowski and Ptashne, in Nucleic Acids Res. 17:[…] (1989)) into the HindIII/SacI sites of pCMX (Umesono et al., in Cell 65:1255-1266 (1991)) to create pCMX-GAL4. This vector contains the CMV promoter fused to the coding sequence for GAL4 (1-147), followed by inframe polylinker cloning sites and translational stop codons. The cDNAs encoding the ligand-binding domain (LBD) of each of the receptors were then ligated into the polylinker to create GAL4-LBD fusions.
The following receptor amino acid sequences were used for these constructions and their corresponding DNA sequences ligated into pCMX-GAL4:hLXRα 166-447, hRXRα 203-462 and hRARα 185-462.
To address the possibility that the retinoid response elicited by LXRα was through the direct interaction of ligand with the putative ligand binding domain of LXRα, ligand activation experiments were performed with the GAL4-receptor hybrids. […]

hLXRα = assay: CV-1 cotransfection assay, hLXRα expression plasmid with LXRE luciferase reporter (TK-LXRE3-LUC / TK-LXRE2-LUC); format: cell-based, human; conditions: CV-1 cells, hLXRα transfected alone; 10^-5 M 9cRA, 10^-5 M TTNPB, 10^-4 M methoprene acid; harvested 36 hours after ligand
Experimental: CV-1 cells were maintained at 37° C., 5% CO2 in DMEM containing 5% calf bovine serum (CBS). Transfections were performed in 8-well plates in media containing 5% dextran-charcoal stripped CBS by the calcium phosphate coprecipitation technique as described previously (Mangelsdorf et al., (1990) supra). Eight hours after transfections ligands were delivered to cells at 10^3 -fold dilutions (0.1% vol/vol of solvent in media). Retinoids (gifts from Marcus Boehm at Ligand Pharmaceuticals, Inc.) were manipulated under gold light and stored dark in ethanol or methanol under nitrogen gas at -80° C. Cells were harvested 36 hours after addition of ligand and analyzed for luciferase and β-galactosidase activity using a Dynatech microtiter plate Model ML3000 luminometer and a Model MR5000 spectrophotometer, respectively.
For most experiments, cotransfection of DNA into mammalian cells was accomplished with 50 ng reporter plasmid, 50 ng RSV- or CMX-βgal, 25 ng of each receptor expression plasmid and pGEM carrier to give 375 ng DNA/well. For controls, the empty CMX vector was used in place of the receptor cDNA. For the GAL4-receptor chimera experiments, 30 ng receptor and 80 ng of reporter plasmid were used. For GAL4 and VP16 chimera interaction assays, 30 ng of GAL4-LXRα and 15 ng of the VP16-RAR or -RXR were used along with 80 ng of the reporter plasmid. All transfection data points were normalized using an internal β-galactosidase marker (Mangelsdorf et al., (1990) supra) and represent the mean of duplicate or triplicate assays.
To identify a potential ligand for the orphan receptor LXRα, a cell-based cotransfection screening assay similar to that used to successfully identify the RXR ligand (see Mangelsdorf et al., (1990) supra; Heyman et al., in Cell68:397-406 (1992)) was employed. Initially an LXR responsive gene was unknown, therefore the preliminary experiments were designed to first identify an LXR-specific DNA binding sequence that could serve as an LXR responsive element (referred to as an LXRE). […] Thus, an assay system was established by transfecting CV-1 cells with an expression plasmid harboring the cDNA for LXRα and the luciferase reporter plasmid TK-LXRE3-LUC (see FIG. 2a). TK-LXRE3-LUC contains three copies of the LXRE defined herein; TK-CRBPII-LUC contains the RXRE from the rat CRBPII promoter (Mangelsdorf et al., (1991) supra)); TK-βRE-LUC contains the RAR response element from the mouse RARβ2 promoter (Sucov et al., (1990) supra). Luciferase activity is expressed in relative light units (RLU) and represents the mean of triplicate assays (±SEM) normalized to βgal as an internal standard.
Thus, expression plasmids for hLXRα, hRXRα, or no receptor (-) were cotransfected into CV1 cells in combination with the reporter plasmids TK-LUC or TK-LXRE2-LUC as indicated. […]

RARs = conditions: from the literature; cited from earlier work
RXRs = conditions: from the literature; cited from earlier work
GAL4-RAR = biological target: T2, GAL4-RAR (Homo sapiens, UniProt P10276); assay: GAL4-receptor chimera ligand activation, GAL4-RAR with TK-MH100x4-LUC in CV1 cells; format: cell-based; conditions: 10^-5 M 9cRA, 10^-5 M TTNPB, 10^-4 M methoprene acid, FIG. 3c
T2 construct: hRARα 185-462; expressed in transfected cells; host or cells: CV-1
T2 sequence (P10276 185-462): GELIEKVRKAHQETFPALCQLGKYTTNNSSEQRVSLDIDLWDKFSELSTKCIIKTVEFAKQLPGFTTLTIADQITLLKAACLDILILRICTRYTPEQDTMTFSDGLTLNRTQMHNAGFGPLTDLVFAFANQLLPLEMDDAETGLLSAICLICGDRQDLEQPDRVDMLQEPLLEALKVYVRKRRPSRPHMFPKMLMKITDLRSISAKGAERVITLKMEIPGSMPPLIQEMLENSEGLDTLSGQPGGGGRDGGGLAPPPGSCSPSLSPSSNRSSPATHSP
Experimental: as §1
The hLXRα cDNA insert was excised from the plasmid pXR2ΔRV with Kpn1 and BamHI and ligated into the expression vectors RSV and CMX. […] The cDNAs encoding the ligand-binding domain (LBD) of each of the receptors were then ligated into the polylinker to create GAL4-LBD fusions.
Such heterologous system provides an effective means for directly assaying receptor/ligand interactions, even in the presence of endogenous wild-type receptors.

LXRα/RXRα heterodimer = LXRα/RXRα heterodimer (Homo sapiens, UniProt Q13133;P19793 Q13133:1-447,P19793:1-462); assay: EMSA; strong complex; supershifted by anti-RXRα; 75 mM KCl, 20 mM Hepes pH 7.4; conditions: tags: none; coupled in vitro transcription/translation (Promega); label: 32P; HindIII overhangs
Experimental: (§2) For EMSA experiments, receptor proteins were generated using a coupled in vitro transcription/translation system according to the manufacturer's instructions (Promega). Sequences of double-stranded oligonucleotides were as shown in the figures and text and were synthesized with HindIII overhangs. Binding reactions were performed in a total volume of 20 μl consisting of 75 mM KCl, 20 mM Hepes, pH 7.4, 2 mM DTT, 7.5% glycerol, 0.1% NP-40, 2
(§3) MG poly (dI-dC) (Pharmacia), 40 pmol of a non-specific single-stranded oligonucleotide (for removal of non-specific binding in the lysates), and 2 μl of receptor lysates or unprogrammed (control) lysates. Reactions containing lysates and competing oligonucleotides were incubated for 30 minutes on ice followed by the addition of 40 fmol of ^32P-labeled oligonucleotide probe (labeled by end-filling) and further incubated for 20 minutes at room temperature. Samples were then analyzed on 5% polyacrylamide gels run in 0.5X TBE buffer. For antibody supershifting experiments, 1 μl of anti-hRXRα antiserum (a gift from Jacki Dyck), or non-specific antiserum was added to the reactions after addition of the radiolabeled probe and incubated at room temperature for 10 minutes, followed by gel electrophoresis.

RXRα = RXRα (Homo sapiens, UniProt P19793 P19793:1-462); assay: EMSA; RXRα alone; conditions: label: 32P; HindIII overhangs
Experimental: as §2, §3

RXRα, sequence (P19793 whole entry, one chain of several): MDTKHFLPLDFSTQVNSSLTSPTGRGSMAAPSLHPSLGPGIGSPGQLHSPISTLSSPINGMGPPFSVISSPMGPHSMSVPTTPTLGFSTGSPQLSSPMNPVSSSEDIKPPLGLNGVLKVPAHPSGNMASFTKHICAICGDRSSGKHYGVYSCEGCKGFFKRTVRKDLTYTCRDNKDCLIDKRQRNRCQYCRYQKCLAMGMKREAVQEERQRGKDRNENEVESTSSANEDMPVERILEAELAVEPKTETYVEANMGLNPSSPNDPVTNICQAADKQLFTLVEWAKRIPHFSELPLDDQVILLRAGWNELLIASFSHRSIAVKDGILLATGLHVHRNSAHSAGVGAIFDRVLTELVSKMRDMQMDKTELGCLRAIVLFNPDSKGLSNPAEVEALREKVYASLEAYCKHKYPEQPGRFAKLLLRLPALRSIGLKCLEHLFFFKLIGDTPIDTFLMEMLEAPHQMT
LXRα/RXRα heterodimer, sequence (P19793 whole entry, one chain of several): as above

C/C(=C\c1ccc(C(=O)O)cc1)c1ccc2c(c1)C(C)(C)CCC2(C)C [TTNPB, (E)-4-[2-(5,6,7,8-tetrahydro-5,5,8,8-tetramethyl-2-napthalenyl) -1-propenyl]benzoic acid]
Ligand inducible transactivation by GAL4-LXR chimera (GAL4-LXR): no activation
LXRα activation of LXRE-containing luciferase reporter (TK-LXRE3-LUC) (hLXRα): no effect
Ligand binding / specificity for RAR (RARs): RAR-specific

CC1=C(/C=C/C(C)=C\C=C\C(C)=C\C(=O)O)C(C)(C)CCC1 [9cRA, 9-cis retinoic acid]
Ligand inducible transactivation by GAL4-LXR chimera (GAL4-LXR): no activation
LXRα activation of LXRE-containing luciferase reporter (TK-LXRE3-LUC) (hLXRα): strongly activated
Ligand binding / specificity for RXR (RXRs): high affinity ligand for both RARs and RXRs; also recorded: binds to both RXR and RAR
Ligand binding / specificity for RAR (RARs): high affinity ligand for both RARs and RXRs; also recorded: binds to both RXR and RAR
Ligand inducible transactivation by GAL4-RAR chimera (GAL4-RAR): activates both RXR and RAR

B1: LXRE (ΔMTV) (dsDNA)
DNA 1: CTTGCGGTTCCCAGGGTTTAAATAAGTTCA
DNA 2: TGAACTTATTTAAACCCTGGGAACCGCAAG
binding result (LXRα/RXRα heterodimer): binds
binding result (RXRα): no binding
